The compounds below were run against T1, Human TRPC6 (Homo sapiens, UniProt Q9Y210) (assay: Evaluation of TRPC6 channel inhibitory activity (1), FLIPR Calcium 5 Assay Kit, OAG stimulation (Compound Nos. 1-1293)). Conditions: not given.
T1 construct: expressed in transfected cells
T1 sequence (Q9Y210 1-931): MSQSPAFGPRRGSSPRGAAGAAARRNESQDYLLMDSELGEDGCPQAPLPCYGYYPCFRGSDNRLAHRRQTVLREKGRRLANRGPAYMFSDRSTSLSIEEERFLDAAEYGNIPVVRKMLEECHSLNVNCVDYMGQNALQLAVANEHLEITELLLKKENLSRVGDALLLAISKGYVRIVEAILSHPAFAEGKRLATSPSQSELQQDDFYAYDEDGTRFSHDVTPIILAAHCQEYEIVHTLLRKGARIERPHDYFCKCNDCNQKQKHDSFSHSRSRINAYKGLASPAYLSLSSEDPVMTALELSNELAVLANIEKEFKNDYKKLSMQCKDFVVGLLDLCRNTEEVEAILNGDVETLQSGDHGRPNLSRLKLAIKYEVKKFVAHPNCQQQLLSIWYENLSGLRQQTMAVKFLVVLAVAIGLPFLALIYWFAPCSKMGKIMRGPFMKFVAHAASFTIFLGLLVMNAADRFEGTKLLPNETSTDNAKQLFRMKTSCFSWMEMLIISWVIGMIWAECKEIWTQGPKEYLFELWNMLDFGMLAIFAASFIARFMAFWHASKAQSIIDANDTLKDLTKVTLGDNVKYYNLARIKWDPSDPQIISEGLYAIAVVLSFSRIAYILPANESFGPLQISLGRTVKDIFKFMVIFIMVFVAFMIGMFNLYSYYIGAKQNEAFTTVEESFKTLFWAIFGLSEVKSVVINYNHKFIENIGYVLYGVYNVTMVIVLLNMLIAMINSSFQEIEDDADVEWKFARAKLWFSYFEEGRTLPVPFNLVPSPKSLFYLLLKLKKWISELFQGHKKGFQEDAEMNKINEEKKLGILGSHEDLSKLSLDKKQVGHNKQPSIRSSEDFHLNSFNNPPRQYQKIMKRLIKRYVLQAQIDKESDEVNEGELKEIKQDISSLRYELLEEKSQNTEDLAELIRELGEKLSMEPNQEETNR
Assay type: cell-based
Method in brief: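 The FLIPR signal is maximum fluorescence after 30 μM OAG minus minimum before compound, measured in a human TRPC6 stable line loaded with Calcium 5 dye. Compounds were preincubated 20 min. pIC50 came from four-parameter logistic fitting of inhibition rates and is given as symbol ranges.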

Compound	IC50 [nM]
Cc1cc(Oc2cc(C#N)ccc2-c2ncc(CCN)cn2)cc(N2C3CCC2CC3)n1 [compound 827, 4-[5-(2-aminoethyl)pyrimidin-2-yl]-3-[2-(7-azabicyclo[2.2.1]heptan-7-yl)-6-methylpyridin-4-yl]oxybenzonitrile]	< 10

Same assay, conditions: Human TRPC6 stably-expressing cells, OAG 30 μM, FLIPR Calcium 5 Assay Kit; read-out: Inhibitory activity (pIC50 class) (converted)

Compound	IC50 [nM]
Cc1nc(CN2CCCCC2)cn1Cc1cc(C#N)ccc1-c1ncc(CCN)cn1 [Compound No. 1179, 4-[5-(2-Aminoethyl)pyrimidin-2-yl]-3-[[2-methyl-4-(piperidin-1-ylmethyl)imidazol-1-yl]methyl]benzonitrile]	> 1000
Cc1cc(Oc2cc(C#N)ccc2-c2ncc(CN)cn2)cc(-c2ccccn2)n1 [compound 572, 4-[5-(aminomethyl)pyrimidin-2-yl]-3-(2-methyl-6-pyridin-2-ylpyridin-4-yl)oxybenzonitrile]	10 to 1000
CCOC(CN)c1ccc(-c2ccc(C#N)cc2Oc2cc(N3CCOCC3)nc(C)n2)cc1 (centres unmarked) [Compound 100, 4-[4-(2-amino-1-ethoxyethyl)phenyl]-3-(2-methyl-6-morpholin-4-ylpyrimidin-4-yl)oxybenzonitrile]	< 10
Cc1cc(Oc2cc(C#N)ccc2-c2ccc(C(N)CO)cn2)cc(N2CCOCC2)n1 (centres unmarked) [compound 412, 4-[5-(1-amino-2-hydroxyethyl)pyridin-2-yl]-3-(2-methyl-6-morpholin-4-ylpyridin-4-yl)oxybenzonitrile]	10 to 1000
N#Cc1ccc(-c2ncc(CN)cn2)c(Oc2cnnc(N3CCCC3)c2)c1 [compound 714, 4-[5-(aminomethyl)pyrimidin-2-yl]-3-(6-pyrrolidin-1-ylpyridazin-4-yl)oxybenzonitrile]	< 10
CN(c1cc(C#N)ccc1-c1ncc(CCN)cn1)c1cc(-c2ccccc2)nn1C [Compound 6, 4-[5-(2-Aminoethyl)pyrimidin-2-yl]-3-[methyl-(2-methyl-5-phenylpyrazol-3-yl)amino]benzonitrile]	< 10
N#Cc1ccc(-c2ncc(CCN)cn2)c(Sc2sc(-c3ccccc3)nc2C#N)c1 [compound 1274, 5-[2-[5-(2-aminoethyl)pyrimidin-2-yl]-5-cyanophenyl]sulfanyl-2-phenyl-1,3-thiazole-4-carbonitrile]	10 to 1000
Cc1nc(-c2cc(Oc3cc(C#N)ccc3-c3ncc(CN)cn3)n(C)n2)cn1C [compound 933, 4-[5-(aminomethyl)pyrimidin-2-yl]-3-[5-(1,2-dimethylimidazol-4-yl)-2-methylpyrazol-3-yl]oxybenzonitrile]	> 1000
Cc1cc(Oc2cc(C#N)ccc2-c2ccc(C(O)C(C)(C)N)cn2)cc(N2CCOCC2)n1 (centres unmarked) [compound 303, 4-[5-(2-amino-1-hydroxy-2-methylpropyl)pyridin-2-yl]-3-(2-methyl-6-morpholin-4-ylpyridin-4-yl)oxybenzonitrile]	10 to 1000
Cn1nc(C2CC2)cc1Oc1cc(C#N)ccc1-c1ccc(CN2CCOCC2)cn1 [compound 424, 3-(5-cyclopropyl-2-methylpyrazol-3-yl)oxy-4-[5-(morpholin-4-ylmethyl)pyridin-2-yl]benzonitrile]	> 1000
Cn1nc(N2CCCC2)cc1Oc1cc(C#N)ccc1-c1ncc(CN)cn1 [compound 625, 4-[5-(aminomethyl)pyrimidin-2-yl]-3-(2-methyl-5-pyrrolidin-1-ylpyrazol-3-yl)oxybenzonitrile]	< 10
Cn1nc(-c2cccnc2)cc1Oc1cc(C#N)ccc1-c1ccc(CCN)cn1 [Compound 179, 4-[5-(2-aminoethyl)pyridin-2-yl]-3-(2-methyl-5-pyridin-3-ylpyrazol-3-yl)oxybenzonitrile]	< 10
Cn1nc(C2CC2)cc1Oc1cc(C#N)ccc1-c1cc(C(O)CN)c(Cl)cn1 (centres unmarked) [compound 518, 4-[4-(2-amino-1-hydroxyethyl)-5-chloropyridin-2-yl]-3-(5-cyclopropyl-2-methylpyrazol-3-yl)oxybenzonitrile]	10 to 1000
Cn1nc(C2CC2)cc1Oc1cc(C#N)ccc1-c1ccc(CN)nn1 [compound 870, 4-[6-(aminomethyl)pyridazin-3-yl]-3-(5-cyclopropyl-2-methylpyrazol-3-yl)oxybenzonitrile]	10 to 1000
Cc1nc(OCC2(C)COC2)cc(Oc2cc(C#N)ccc2-c2ncc(CN)cn2)n1 [compound 894, 4-[5-(aminomethyl)pyrimidin-2-yl]-3-[2-methyl-6-[(3-methyloxetan-3-yl)methoxy]pyrimidin-4-yl]oxybenzonitrile]	> 1000
Cn1nc(N2CCOCC2)cc1C(=O)c1cc(F)ccc1-c1ccc(CCN)cn1 [compound 1106, [2-[5-(2-aminoethyl)pyridin-2-yl]-5-fluorophenyl]-(2-methyl-5-morpholin-4-ylpyrazol-3-yl)methanone]	< 10

Compound	IC50 [nM]
Cn1nc(C(F)(F)F)cc1-c1cc(Oc2cc(C#N)ccc2-c2ccc(CCN)cc2)cnn1 [Compound 111, 4-[4-(2-aminoethyl)phenyl]-3-[6-[2-methyl-5-(trifluoromethyl)pyrazol-3-yl]pyridazin-4-yl]oxybenzonitrile]	10 to 1000
N#Cc1ccc(-c2ncc(CCN)cn2)c(Oc2nnc(N3CCOCC3)s2)c1 [compound 723, 4-[5-(2-aminoethyl)pyrimidin-2-yl]-3-[(5-morpholin-4-yl-1,3,4-thiadiazol-2-yl)oxy]benzonitrile]	10 to 1000
Cc1nc(COC(C)C)cn1Cc1cc(C#N)ccc1-c1ccc(CCN)cc1 [compound 1126, 4-[4-(2-aminoethyl)phenyl]-3-[[2-methyl-4-(propan-2-yloxymethyl)imidazol-1-yl]methyl]benzonitrile]	> 1000
N#Cc1ccc(-c2ccc(CCN)cc2)c(Oc2cnnc(-c3ccccn3)c2)c1 [Compound 114, 4-[4-(2-aminoethyl)phenyl]-3-(6-pyridin-2-ylpyridazin-4-yl)oxybenzonitrile]	10 to 1000
Cc1nc(NCC(C)C)cc(Oc2cc(C#N)ccc2-c2ncc(CN)cn2)n1 [compound 634, 4-[5-(aminomethyl)pyrimidin-2-yl]-3-[2-methyl-6-(2-methylpropylamino)pyrimidin-4-yl]oxybenzonitrile]	< 10
CCc1cc(C(=O)c2cc(C#N)ccc2-c2ncc(CN)cn2)n(C)n1 [compound 1026, 4-[5-(aminomethyl)pyrimidin-2-yl]-3-(5-ethyl-2-methylpyrazole-3-carbonyl)benzonitrile]	< 10
CC(C)Cn1cc(Oc2cc(Cl)ccc2-c2ncc(CCN)cn2)cn1 [compound 1021, 2-[2-[4-chloro-2-[1-(2-methylpropyl)pyrazol-4-yl]oxyphenyl]pyrimidin-5-yl]ethanamine]	10 to 1000
Cc1cc(Oc2nc(C#N)ccc2-c2ccc(CCN)cn2)cc(N2CCCC2)n1 [compound 1282, 5-[5-(2-aminoethyl)pyridin-2-yl]-6-(2-methyl-6-pyrrolidin-1-ylpyridin-4-yl)oxypyridine-2-carbonitrile]	10 to 1000
Cc1nc(Oc2cc(C#N)ccc2-c2ncc(CCN)cn2)cc(OC2CCC2)n1 [compound 887, 4-[5-(2-aminoethyl)pyrimidin-2-yl]-3-(6-cyclobutyloxy-2-methylpyrimidin-4-yl)oxybenzonitrile]	10 to 1000
CN(C)c1cc(Oc2cc(F)ccc2-c2ccc(CN)cn2)n(C)n1 [compound 998, 5-[2-[5-(aminomethyl)pyridin-2-yl]-5-fluorophenoxy]-N,N,1-trimethylpyrazole-3-amine]	10 to 1000
N#Cc1ccc(-c2ccc(CCN)nc2)c(Oc2cnnc(N3CCCCC3)c2)c1 [Compound 78, 4-[6-(2-aminoethyl)pyridin-3-yl]-3-(6-piperidin-1-ylpyridazin-4-yl)oxybenzonitrile]	10 to 1000
N#Cc1ccc(-c2ncc(CN)cn2)c(C(=O)c2cnn(C3CCC3)c2)c1 [compound 1058, 4-[5-(aminomethyl)pyrimidin-2-yl]-3-(1-cyclobutylpyrazole-4-carbonyl)benzonitrile]	< 10
Cc1nc(Oc2cc(C#N)ccc2-c2nc(C(O)CN(C)C)c(C)n2C)cc(-c2ccccc2)n1 (centres unmarked) [Compound 99, 4-[4-[2-(dimethylamino)-1-hydroxyethyl]-1,5-dimethylimidazol-2-yl]-3-(2-methyl-6-phenylpyrimidin-4-yl)oxybenzonitrile]	> 1000
Cc1cc(Oc2cc(C#N)ccc2-c2ncc([C@H](O)CN)cn2)cc(N2CCCC2)n1 [compound 499, 4-[5-[(1S)-2-amino-1-hydroxyethyl]pyrimidin-2-yl]-3-(2-methyl-6-pyrrolidin-1-ylpyridin-4-yl)oxybenzonitrile]	< 10
N#Cc1ccc(-c2ncc(CN)cn2)c(Oc2cnnc(OC3CCCC3)c2)c1 [compound 818, 4-[5-(aminomethyl)pyrimidin-2-yl]-3-(6-cyclopentyloxypyridazin-4-yl)oxybenzonitrile]	10 to 1000
